pKi: −log10 of the molar value.

The source of these data is paper PMC12495306 (RSC Medicinal Chemistry, 2025).

For data set [1], the system named is HEK293 cells. Kind of data set: Cell viability / cytotoxicity assay. Conditions: CellTiter-Glo, 18 h. In kind it is cell-based, human. A general note: In ATP-based viability assays light output follows the ATP content of the culture.
For data set [2], the target named is T1, ARα2A (Homo sapiens, UniProt P08913).
T1 sequence (P08913 1-465): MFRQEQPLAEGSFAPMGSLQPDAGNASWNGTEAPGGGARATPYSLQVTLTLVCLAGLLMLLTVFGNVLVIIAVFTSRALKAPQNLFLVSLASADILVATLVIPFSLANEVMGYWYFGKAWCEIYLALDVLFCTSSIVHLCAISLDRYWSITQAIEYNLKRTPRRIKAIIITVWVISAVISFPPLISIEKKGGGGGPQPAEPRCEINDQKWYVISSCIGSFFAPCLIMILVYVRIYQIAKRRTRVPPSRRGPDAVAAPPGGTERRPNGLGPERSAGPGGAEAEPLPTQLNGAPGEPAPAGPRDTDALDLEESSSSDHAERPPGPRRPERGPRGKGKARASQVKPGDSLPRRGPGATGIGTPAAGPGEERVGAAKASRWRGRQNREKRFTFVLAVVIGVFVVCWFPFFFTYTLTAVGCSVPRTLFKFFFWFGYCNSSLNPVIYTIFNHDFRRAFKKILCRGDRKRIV
Nature of the data set: ARα2A radioligand. The data set is classed as binding.

Data set [3] addresses T2, ARα2B (Homo sapiens, UniProt P18089).
T2 sequence (P18089 1-450): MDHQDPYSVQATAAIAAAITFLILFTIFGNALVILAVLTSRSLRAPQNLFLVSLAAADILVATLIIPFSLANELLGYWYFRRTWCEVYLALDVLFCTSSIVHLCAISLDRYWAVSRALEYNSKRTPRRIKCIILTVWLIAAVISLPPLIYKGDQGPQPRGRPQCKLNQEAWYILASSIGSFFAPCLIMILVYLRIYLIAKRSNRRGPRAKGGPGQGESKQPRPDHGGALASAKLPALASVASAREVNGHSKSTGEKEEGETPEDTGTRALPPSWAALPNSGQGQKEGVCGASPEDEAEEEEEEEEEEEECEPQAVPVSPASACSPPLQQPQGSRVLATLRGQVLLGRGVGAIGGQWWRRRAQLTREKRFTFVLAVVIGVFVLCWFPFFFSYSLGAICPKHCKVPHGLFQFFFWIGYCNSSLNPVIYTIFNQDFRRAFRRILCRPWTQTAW
Nature of the data set: ARα2B radioligand. To be noted: for inhibition at 10 µM: read-out: ARα2B binding (% inhibition at 10 μM). In kind it is binding.

In data set [4] the target is T3, ARα2C (Homo sapiens, UniProt P18825).
T3 sequence (P18825 1-462): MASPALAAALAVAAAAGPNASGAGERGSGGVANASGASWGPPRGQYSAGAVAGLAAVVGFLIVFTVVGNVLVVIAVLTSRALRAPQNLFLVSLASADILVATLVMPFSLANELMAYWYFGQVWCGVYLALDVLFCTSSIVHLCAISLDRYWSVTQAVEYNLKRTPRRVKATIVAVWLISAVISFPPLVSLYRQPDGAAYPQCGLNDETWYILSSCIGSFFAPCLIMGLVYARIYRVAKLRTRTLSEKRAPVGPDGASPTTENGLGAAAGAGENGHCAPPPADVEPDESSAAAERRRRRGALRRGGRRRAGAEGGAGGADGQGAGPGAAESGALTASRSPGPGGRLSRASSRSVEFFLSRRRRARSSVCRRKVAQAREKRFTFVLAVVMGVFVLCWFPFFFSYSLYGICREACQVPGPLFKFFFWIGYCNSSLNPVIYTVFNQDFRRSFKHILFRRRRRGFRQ
Nature of the data set: ARα2C radioligand. In kind it is binding.

The target of data set [5] is T1, ARα2A. Nature of the data set: GPCR Tango β-arrestin recruitment assay, ARα2A transfected HEK293. In kind it is cell-based. Conditions: for activation of ARα2A: agonist mode; for antagonism of ARα2A: in the presence of 300 nM norepinephrine. For orientation: Arrestin recruitment assays detect the binding of arrestin to an activated receptor.
For data set [6], the target named is T2, ARα2B. In kind it is cell-based. Conditions: for activation of ARα2B: agonist mode; for antagonism of ARα2B: in the presence of 300 nM norepinephrine.
Data set [7] concerns the target T3, ARα2C. Kind of data set: GPCR Tango β-arrestin recruitment assay, ARα2C transfected HEK293. In kind it is cell-based. Conditions: for activation of ARα2C: agonist mode; for antagonism of ARα2C: in the presence of 300 nM norepinephrine.
The test system of data set [8] is Female Swiss Webster mice. Kind of data set: Rotarod sensorimotor study. To be noted: 40 mg kg−1 oral; measured after 10, 30 and 60 minutes; n = 8. In kind it is in vivo.
A short description of data set [9]: Pharmacokinetic study, blood and brain. The data set is classed as in vivo, mice. Conditions: 40 mg kg−1 oral.
The test system of data set [10] is Female Swiss Webster mice. Nature of the data set: Open field test. The data set is classed as in vivo. To be noted: 40 mg kg−1 oral; 40 min after administration; n = 6.
Data set [11] can be described thus: Aqueous solubility, shake flask method. Conditions: pH 7.4, PBS, 24 h. The data set is classed as physicochemical.
Data set [12] deals with mice. To be noted: cited from earlier work.
The subject of data set [13] is mice. To be noted: cited from earlier work. This is another data set of the same source.
The mark [14] stands for this setting: ARα2A binding Ki, competition with 3H-Rauwolscinein, concentration response.

What is called pKi is the negative decadic logarithm of the Ki, by convention in mol/L. Read a high pKi as a low Ki. What is called inhibition is the percentage by which the read-out fell short of the control. Regarding `CC1N=C(c2ccccc2F)c2cc(Nc3ccccc3)ccc2NC1=O` (stereo not drawn) [Compound 2, 7-Anilino-5-(2-fluorophenyl)-3-methyl-1,3-dihydro-2H-1,4-benzodiazepin-2-one], the “Cytotoxicity LD50” value in data set [1] is 100 ± 19 µM. This compound also showed a pKi in data set [2] (ARα2A Ki, rounded value) of 5.41. In data set [2] (setting [14]), the negative logarithm of the Ki (pKi) is 5.41. In data set [3], the pKi was 6.29 and the inhibition at 10 µM was found to be 90%. Further, in [3] (from Ki values), the “selectivity for α2B over the α2A subtype” value stood at 7.7 fold and the “selectivity for α2B over the α2C subtype” value came out at 2.2 fold. The pKi in data set [4] was 5.95. In data set [5], the “activation of ARα2A” value was “did not activate” and the “antagonism of ARα2A” value is “antagonized”. Also, in [6], the “activation of ARα2B” value is “did not activate” and the “antagonism of ARα2B” value is “antagonized”. Also, in data set [7], the “activation of ARα2C” value is “did not activate” and the “antagonism of ARα2C” value was “antagonized”. Besides, the “sensorimotor inhibition on rotarod” value in data set [8] was “did not observe any sensorimotor inhibition”. For the same compound, the oral availability entry in [9] (mice) is recorded as “orally available”. In addition, the “blood : brain ratios” value in data set [9] (10, 30, 60 min) was “increased over time”. Further, the “concentration in blood and brain” value in data set [9] (as early as 10 min, n = 4) is “appreciable concentration of 2 in blood and brain that exceeded the affinity of 2 for the target receptor”. Further, the “sedation (open field test)” value in data set [10] is “no sedation”.
The term Aqueous solubility denotes the dissolved amount per volume that the medium holds. Higher therefore signals much dissolved substance. With `CC1N=C(c2ccccc2F)c2cc(Nc3ccccc3F)ccc2NC1=O` (stereo not drawn) [Compound 14, 7-(2-Fluoroanilino)-5-(2-fluorophenyl)-3-methyl-1,3-dihydro-2H-1,4-benzodiazepin-2-one], the Aqueous solubility in data set [11] is 26.0 ± 2.10 µM. In addition, the “Cytotoxicity LD50” value in data set [1] is 90 ± 27 µM. For the same compound, the negative logarithm of the Ki (pKi) is 5.65 in [2] (setting [14]), 5.89 in [3] and 5.67 in data set [4]. For the same compound, the inhibition at 10 µM in data set [3] came out at 82%.
As for `COc1ccccc1Nc1ccc2c(c1)C(c1ccccc1F)=NC(C)C(=O)N2` (stereo not drawn) [Compound 17, 5-(2-Fluorophenyl)-7-(2-methoxyanilino)-3-methyl-1,3-dihydro-2H-1,4-benzodiazepin-2-one], the “Cytotoxicity LD50” value in data set [1] is 148 ± 12 µM. The compound also gave a pKi in data set [2] (setting [14]) of 5.69. Besides, in data set [3], the negative logarithm of the Ki (pKi) was 6.22 and the inhibition at 10 µM stood at 91%. Also, the pKi in [4] is 6.13. In addition, in data set [5], the “activation of ARα2A” value is “did not activate” and the “antagonism of ARα2A” value was “antagonized”. Further, in data set [6], the “activation of ARα2B” value was “did not activate” and the “antagonism of ARα2B” value is listed as “antagonized”. In [7], the “activation of ARα2C” value is reported as “did not activate” and the “antagonism of ARα2C” value is listed as “antagonized”. Besides, the “sensorimotor inhibition on rotarod” value in [8] is on record as “did not observe any sensorimotor inhibition”. In [10], the “sedation (open field test)” value is listed as “no sedation”.
`CC1N=C(c2ccccc2F)c2cc(NC(C)(C)C)ccc2NC1=O` (stereo not drawn) [Compound 25, 7-(tert-Butylamino)-5-(2-fluorophenyl)-3-methyl-1,3-dihydro-2H-1,4-benzodiazepin-2-one] showed an Aqueous solubility in [11] of 393.6 ± 10.40 µM. For the same compound, the “Cytotoxicity LD50” value in [1] was over 300 µM. In addition, in data set [3], the inhibition at 10 µM turned out to be 40%.
In the case of `CCC1(c2cnc[nH]2)Cc2ccccc2C1` [atipamezole], the “locomotion (OFT)” value in data set [12] (1 mg kg−1) is reported as “did not modulate locomotion”.
Take `Cc1cccc([C@H](C)c2cnc[nH]2)c1C` [dexmedetomidine]: in [13] (i.p. doses of higher than 10 μg kg−1), the “ability of mice to stay on the rotating rod” value is recorded as “reduced the ability of mice to stay on the rotating rod”. Further, the “activity scores (OFT)” value in data set [12] (30 μg kg−1 (s.c.)) is recorded as “significantly reduced the activity scores”.
`Cc1ccc(N(CC2=NCCN2)c2cccc(O)c2)cc1` [phentolamine]: the “ability of mice to complete a rotarod exercise” value in data set [13] (4 mg kg−1 (i.p.)) is listed as “do not usually alter the ability of mice to complete a rotarod exercise”.
